Test results as given in PMC4844176 (Xenobiotica; the fate of foreign compounds in biological …, 2015).
Values joined by “and” are separate entries in the source; they are usually repeats but may differ in a detail not shown here. Equal entries are not always repeated.

Key:
[1] = tested on: human intestinal microsomes (HIM)
UGT1A8 = target: T1, UGT1A8 (Homo sapiens, UniProt Q9HAW9); test: in vitro; conditions: UGT1A8 Supersomes, pH 7.5, probe aprepitant […] (Km), AP-G formation
T1 sequence (Q9HAW9 26-530): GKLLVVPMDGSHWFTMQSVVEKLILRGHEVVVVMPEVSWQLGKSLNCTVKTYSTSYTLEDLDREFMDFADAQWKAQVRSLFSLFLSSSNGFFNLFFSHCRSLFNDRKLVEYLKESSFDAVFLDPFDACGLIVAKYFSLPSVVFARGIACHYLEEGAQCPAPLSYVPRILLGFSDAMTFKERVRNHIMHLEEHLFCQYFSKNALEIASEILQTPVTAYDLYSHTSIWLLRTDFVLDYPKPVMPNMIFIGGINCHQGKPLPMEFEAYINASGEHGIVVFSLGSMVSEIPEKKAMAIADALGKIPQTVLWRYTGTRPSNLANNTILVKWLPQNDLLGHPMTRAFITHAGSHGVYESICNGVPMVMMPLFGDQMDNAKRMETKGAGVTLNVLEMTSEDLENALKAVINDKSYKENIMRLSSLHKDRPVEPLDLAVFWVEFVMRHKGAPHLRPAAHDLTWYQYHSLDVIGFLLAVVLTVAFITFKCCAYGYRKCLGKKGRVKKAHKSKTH

UGT1A4 [2] = target: T2, UGT1A4 (Homo sapiens, UniProt P22310)
T2 sequence (P22310 29-534): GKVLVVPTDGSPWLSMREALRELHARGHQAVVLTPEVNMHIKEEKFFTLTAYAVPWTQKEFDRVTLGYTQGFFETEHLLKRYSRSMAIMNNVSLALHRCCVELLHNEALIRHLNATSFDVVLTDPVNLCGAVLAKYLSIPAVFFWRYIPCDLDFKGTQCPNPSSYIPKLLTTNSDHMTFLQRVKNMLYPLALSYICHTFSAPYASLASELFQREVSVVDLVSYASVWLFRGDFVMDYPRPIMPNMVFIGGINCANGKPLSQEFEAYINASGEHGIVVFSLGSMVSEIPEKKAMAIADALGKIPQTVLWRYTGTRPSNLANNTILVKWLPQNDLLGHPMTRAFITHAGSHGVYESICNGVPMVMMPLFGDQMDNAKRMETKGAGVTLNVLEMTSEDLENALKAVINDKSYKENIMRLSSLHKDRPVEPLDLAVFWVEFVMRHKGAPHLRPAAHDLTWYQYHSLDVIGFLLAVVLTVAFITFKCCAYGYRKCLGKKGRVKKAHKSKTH

[3] = tested on: human liver microsomes (HLM); test: Inhibition of aprepitant glucuronidation by UGT specific inhibitors in HLM; type: in vitro ADME; conditions: for inhibition of aprepitant glucuronidation: aprepitant at 5 µM and at the Kms
UGT1A4 [4] = target: T2, UGT1A4; test: Inhibition of aprepitant glucuronidation by UGT specific inhibitors in UGT1A4; conditions: UGT1A4, aprepitant 5 µM, 200 µM hecogenin
UGT1A3 [5] = target: T3, UGT1A3 (Homo sapiens, UniProt P35503); test: Inhibition of aprepitant glucuronidation by UGT specific inhibitors in UGT1A3; conditions: UGT1A3 Supersomes, pH 7.5, probe aprepitant 5 µM, AP-G formation
T3 sequence (P35503 29-534): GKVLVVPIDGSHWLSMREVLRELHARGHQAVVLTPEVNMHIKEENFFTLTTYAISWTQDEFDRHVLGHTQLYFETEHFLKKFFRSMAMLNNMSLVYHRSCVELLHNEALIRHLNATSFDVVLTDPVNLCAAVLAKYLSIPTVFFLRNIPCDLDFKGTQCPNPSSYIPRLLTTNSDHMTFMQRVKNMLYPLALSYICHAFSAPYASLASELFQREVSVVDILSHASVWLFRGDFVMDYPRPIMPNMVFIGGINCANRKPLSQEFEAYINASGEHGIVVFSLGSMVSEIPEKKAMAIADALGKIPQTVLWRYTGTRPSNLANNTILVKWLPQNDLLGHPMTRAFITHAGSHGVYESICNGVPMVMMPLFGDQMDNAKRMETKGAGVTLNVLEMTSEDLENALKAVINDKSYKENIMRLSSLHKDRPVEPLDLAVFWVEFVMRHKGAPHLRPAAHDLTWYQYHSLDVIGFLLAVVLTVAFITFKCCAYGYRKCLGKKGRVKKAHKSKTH

UGT1A3 [6] = target: T3, UGT1A3; test: in vitro; conditions: UGT1A3 Supersomes, pH 7.5, probe aprepitant […] µM (Km), AP-G formation
UGT2B7 = target: T4, UGT2B7 (Homo sapiens, UniProt P16662); conditions: ref Veal et al., 1995; Barbier et al., 2000; cited from earlier work
T4 sequence (P16662 24-529): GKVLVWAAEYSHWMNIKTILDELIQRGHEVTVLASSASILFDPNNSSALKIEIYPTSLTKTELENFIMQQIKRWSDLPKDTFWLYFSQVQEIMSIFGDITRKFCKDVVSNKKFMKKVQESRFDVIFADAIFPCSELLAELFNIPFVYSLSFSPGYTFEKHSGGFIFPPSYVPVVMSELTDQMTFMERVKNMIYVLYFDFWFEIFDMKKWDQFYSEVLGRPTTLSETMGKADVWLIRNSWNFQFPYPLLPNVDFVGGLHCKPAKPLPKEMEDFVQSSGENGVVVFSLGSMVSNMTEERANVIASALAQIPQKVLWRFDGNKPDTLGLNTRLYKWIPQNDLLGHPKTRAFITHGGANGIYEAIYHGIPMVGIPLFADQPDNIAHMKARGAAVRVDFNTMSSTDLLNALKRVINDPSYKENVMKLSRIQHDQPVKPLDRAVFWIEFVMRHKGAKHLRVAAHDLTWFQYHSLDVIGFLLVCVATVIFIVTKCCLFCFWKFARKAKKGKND

not read = substrate: C[C@@H](O[C@H]1OCCN(Cc2n[nH]c(=O)[nH]2)[C@H]1c1ccc(F)cc1)c1cc(C(F)(F)F)cc(C(F)(F)F)c1; test: not read; conditions: mean ± SE, pH 7.5, 37.0 °C
[7] = aprepitant 5 µM, 1000 µM sulfinpyrazone or 200 µM hecogenin

## O=C(O)Cc1ccccc1Nc1c(Cl)cccc1Cl [diclofenac]
[1]
  inhibition: 100%
UGT1A8
  inhibition at 60 min, 500 µM: 66.7%

## hecogenin
UGT1A4 [2]
  inhibition: 83.9%
[3]; [7]
  Percent inhibition of aprepitant glucuronidation: 100%
[3]; aprepitant […] (Km for UGT1A4), 200 µM hecogenin
  Percent inhibition of aprepitant glucuronidation: 80.8%
[3]
  inhibition of aprepitant glucuronidation: high inhibition
UGT1A4 [4]
  Percent inhibition of aprepitant glucuronidation: 100%

## O=C1C(CC[S+]([O-])c2ccccc2)C(=O)N(c2ccccc2)N1c1ccccc1 (stereo not shown) [sulfinpyrazone]
UGT1A3 [5]
  inhibition at 60 min, 1000 µM: 100%
[3]; [7]
  Percent inhibition of aprepitant glucuronidation: 22.2%
[3]; aprepitant […] µM (Km for UGT1A3), 1000 µM sulfinpyrazone
  Percent inhibition of aprepitant glucuronidation: 22.1%
[3]
  inhibition of aprepitant glucuronidation: < 25%
UGT1A3 [6]
  inhibition at 60 min, 1000 µM: 100%

## Cc1cn([C@H]2C[C@H](N=[N+]=[N-])[C@@H](CO)O2)c(=O)[nH]c1=O [AZT, 3’-azido-3’-deoxythymidine]
UGT2B7
  share of glucuronidation catalyzed by UGT2B7: 60–70%

B1: UGT1A4 (Homo sapiens) (protein)
chain: GKVLVVPTDGSPWLSMREALRELHARGHQAVVLTPEVNMHIKEEKFFTLTAYAVPWTQKEFDRVTLGYTQGFFETEHLLKRYSRSMAIMNNVSLALHRCCVELLHNEALIRHLNATSFDVVLTDPVNLCGAVLAKYLSIPAVFFWRYIPCDLDFKGTQCPNPSSYIPKLLTTNSDHMTFLQRVKNMLYPLALSYICHTFSAPYASLASELFQREVSVVDLVSYASVWLFRGDFVMDYPRPIMPNMVFIGGINCANGKPLSQEFEAYINASGEHGIVVFSLGSMVSEIPEKKAMAIADALGKIPQTVLWRYTGTRPSNLANNTILVKWLPQNDLLGHPMTRAFITHAGSHGVYESICNGVPMVMMPLFGDQMDNAKRMETKGAGVTLNVLEMTSEDLENALKAVINDKSYKENIMRLSSLHKDRPVEPLDLAVFWVEFVMRHKGAPHLRPAAHDLTWYQYHSLDVIGFLLAVVLTVAFITFKCCAYGYRKCLGKKGRVKKAHKSKTH
Not read; other: UGT1A4, Michaelis-Menten
  K0.5: 161.6 ± 15.6 µM and 162 ± 16 µM

B2: UGT1A8 (Homo sapiens) (protein)
chain: GKLLVVPMDGSHWFTMQSVVEKLILRGHEVVVVMPEVSWQLGKSLNCTVKTYSTSYTLEDLDREFMDFADAQWKAQVRSLFSLFLSSSNGFFNLFFSHCRSLFNDRKLVEYLKESSFDAVFLDPFDACGLIVAKYFSLPSVVFARGIACHYLEEGAQCPAPLSYVPRILLGFSDAMTFKERVRNHIMHLEEHLFCQYFSKNALEIASEILQTPVTAYDLYSHTSIWLLRTDFVLDYPKPVMPNMIFIGGINCHQGKPLPMEFEAYINASGEHGIVVFSLGSMVSEIPEKKAMAIADALGKIPQTVLWRYTGTRPSNLANNTILVKWLPQNDLLGHPMTRAFITHAGSHGVYESICNGVPMVMMPLFGDQMDNAKRMETKGAGVTLNVLEMTSEDLENALKAVINDKSYKENIMRLSSLHKDRPVEPLDLAVFWVEFVMRHKGAPHLRPAAHDLTWYQYHSLDVIGFLLAVVLTVAFITFKCCAYGYRKCLGKKGRVKKAHKSKTH
Not read; other: UGT1A8, Hill equation (S50)
  K0.5: 197.1 ± 28.2 µM and 197 ± 28 µM

B3: UGT1A3 (Homo sapiens) (protein)
chain: GKVLVVPIDGSHWLSMREVLRELHARGHQAVVLTPEVNMHIKEENFFTLTTYAISWTQDEFDRHVLGHTQLYFETEHFLKKFFRSMAMLNNMSLVYHRSCVELLHNEALIRHLNATSFDVVLTDPVNLCAAVLAKYLSIPTVFFLRNIPCDLDFKGTQCPNPSSYIPRLLTTNSDHMTFMQRVKNMLYPLALSYICHAFSAPYASLASELFQREVSVVDILSHASVWLFRGDFVMDYPRPIMPNMVFIGGINCANRKPLSQEFEAYINASGEHGIVVFSLGSMVSEIPEKKAMAIADALGKIPQTVLWRYTGTRPSNLANNTILVKWLPQNDLLGHPMTRAFITHAGSHGVYESICNGVPMVMMPLFGDQMDNAKRMETKGAGVTLNVLEMTSEDLENALKAVINDKSYKENIMRLSSLHKDRPVEPLDLAVFWVEFVMRHKGAPHLRPAAHDLTWYQYHSLDVIGFLLAVVLTVAFITFKCCAYGYRKCLGKKGRVKKAHKSKTH
Not read; other: UGT1A3, Michaelis-Menten
  K0.5: 69.4 ± 1.9 µM and 69 ± 2 µM
